Results on 26 compounds are retold here after patent US7674801B2 (AstraZeneca AB, priority 2006, dated 2010).

Chain of S. aureus (SAU) GyrB ATPase (P0A0K8 whole entry): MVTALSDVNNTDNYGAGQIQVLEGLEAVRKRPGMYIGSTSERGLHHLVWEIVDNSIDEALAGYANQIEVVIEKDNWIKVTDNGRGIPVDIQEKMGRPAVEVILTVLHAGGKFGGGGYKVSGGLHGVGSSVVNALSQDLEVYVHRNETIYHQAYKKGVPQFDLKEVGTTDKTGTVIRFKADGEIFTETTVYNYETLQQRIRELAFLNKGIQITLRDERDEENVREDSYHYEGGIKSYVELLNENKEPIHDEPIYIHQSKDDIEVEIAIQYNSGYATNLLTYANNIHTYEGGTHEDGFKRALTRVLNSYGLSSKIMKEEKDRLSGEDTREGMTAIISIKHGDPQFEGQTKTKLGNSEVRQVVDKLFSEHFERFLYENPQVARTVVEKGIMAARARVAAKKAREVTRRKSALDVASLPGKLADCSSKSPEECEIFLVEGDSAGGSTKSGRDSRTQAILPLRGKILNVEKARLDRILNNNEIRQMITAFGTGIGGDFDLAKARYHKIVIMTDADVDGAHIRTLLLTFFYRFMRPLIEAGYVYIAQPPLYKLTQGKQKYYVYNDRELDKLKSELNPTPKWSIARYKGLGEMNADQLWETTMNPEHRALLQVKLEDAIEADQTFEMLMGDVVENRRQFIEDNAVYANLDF
Chain of S. aureus (SAU) GyrB ATPase (P0AES4 whole entry, further chain): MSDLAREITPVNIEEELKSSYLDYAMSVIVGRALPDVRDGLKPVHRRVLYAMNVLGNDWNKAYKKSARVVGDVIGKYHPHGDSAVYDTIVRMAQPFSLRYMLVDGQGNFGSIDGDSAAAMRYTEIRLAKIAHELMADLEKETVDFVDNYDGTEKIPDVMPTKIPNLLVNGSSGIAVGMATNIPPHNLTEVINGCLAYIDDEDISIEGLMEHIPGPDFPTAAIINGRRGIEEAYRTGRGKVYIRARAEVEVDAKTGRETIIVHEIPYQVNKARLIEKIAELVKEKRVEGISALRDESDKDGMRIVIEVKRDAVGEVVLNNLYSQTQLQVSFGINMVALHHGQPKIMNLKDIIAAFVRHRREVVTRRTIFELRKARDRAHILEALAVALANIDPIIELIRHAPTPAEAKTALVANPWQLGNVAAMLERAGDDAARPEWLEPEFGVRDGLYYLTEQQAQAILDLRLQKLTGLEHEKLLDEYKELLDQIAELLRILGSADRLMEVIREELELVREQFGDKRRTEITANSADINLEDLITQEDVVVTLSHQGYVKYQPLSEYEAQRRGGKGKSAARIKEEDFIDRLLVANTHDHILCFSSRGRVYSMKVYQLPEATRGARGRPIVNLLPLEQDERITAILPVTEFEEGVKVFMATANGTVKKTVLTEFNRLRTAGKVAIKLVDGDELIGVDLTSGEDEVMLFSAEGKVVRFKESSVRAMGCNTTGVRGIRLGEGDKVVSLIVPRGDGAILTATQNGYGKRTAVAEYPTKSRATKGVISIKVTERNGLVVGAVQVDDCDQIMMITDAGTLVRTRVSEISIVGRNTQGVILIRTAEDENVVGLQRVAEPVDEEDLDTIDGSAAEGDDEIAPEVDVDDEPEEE

One test has as its target S. aureus (SAU) GyrB ATPase (Staphylococcus aureus, UniProt P0A0K8). Description: S. aureus GyrB ATPase inhibition, ammonium molybdate/malachite green phosphate detection assay. The format is biochemical. To be noted: 10 compound concentrations; 500 μM ATP. The protocol: Compounds were tested for inhibition of GyrB ATPase activity using an ammonium molybdate/malachite green-based phosphate detection assay (Lanzetta, P. A., L. J. Alvarez, P. S. Reinach, and O. A. Candia, 1979, 100: 95-97). Assays were performed in multiwell plates in 100 μl reactions containing: 50 mM Hepes buffer pH 7.5, 75 mM ammonium acetate, 8.0 mM magnesium chloride, 1.0 mM ethylenediaminetetraacetic acid, 5% glycerol, 2 mM 1,4-Dithio-DL-threitol, 400 nM bovine serum albumin, 5 μg/ml sheared salmon sperm DNA, 1.25 nM E. coli GyrA, 1.25 nM S. aureus GyrB, 500 μM ATP, and compound in dimethylsulfoxide. Reactions were quenched with 150 μl of ammonium molybdate/malachite green detection reagent containing 1.2 mM malachite green hydrochloride, 8.5 mM ammonium molybdate tetrahydrate, and 1 M hydrochloric acid. Plates were read in an absorbance plate reader at 650 nm and percent inhibition values were calculated using dimethylsulfoxide (2%)-containing reactions as 0% inhibition and novobiocin-containing (2 μM) reactions as 100% inhibition controls. Compound potency was based on IC50 measurements determined from reactions performed in the presence of 10 different compound concentrations.
A word on the IC50: it is the midpoint of a concentration-inhibition curve. Low values mean greater potency in that assay, high ones weaker potency in that assay. `CCCCNC(=O)c1nc(-c2ccc(NC(=O)NCC)nc2)sc1C(N)=O` [Example 39, N^4-Butyl-2-(6-{[(ethylamino)carbonyl]amino}pyridin-3-yl)-1,3-thiazole-4,5-dicarboxamide]: the IC50 worked out at 0.014 µM.

The compound `CCNC(=O)Nc1ccc(-c2cncc(C(=O)O)c2)cn1` [Example 19, 6′-{[(Ethylamino)carbonyl]amino}-3,3′-bipyridine-5-carboxylic acid] came in with an IC50 of 0.846 µM.

Turning to `CCCCNC(=O)c1nc(-c2ccc(NC(=O)NCC)nc2)sc1C(=O)NOC` [Example 36, N^4-Butyl-2-(6-{[(ethylamino)carbonyl]amino}pyridin-3-yl)-N^5-methoxy-1,3-thiazole-4,5-dicarboxamide], the IC50 was 0.0168 µM.

`CCNC(=O)Nc1ccc(-c2ncc(C(=O)O)s2)cn1` [Example 17, 2-(6-{[(ethylamino)carbonyl]amino}pyridin-3-yl)-1,3-thiazole-5-carboxylic acid]: the 50% inhibitory concentration (IC50) was 0.266 µM.

Still in this test, the particulars now being: compound concentration 5 μM (values marked *).
In the case of `CCNC(=O)Nc1ccc(-c2ncc(C(=O)NOC)s2)cn1` [Example 34, 2-(6-{[(Ethylamino)carbonyl]amino}pyridin-3-yl)-N-methoxy-1,3-thiazole-5-carboxamide], the inhibition at 5 µM amounted to 42.5%.

Staying with this test, now noted: read-out: S. aureus (SAU) GyrB ATPase % Inhibition, compound concentration 12.5 μM.
For `CCNC(=O)Nc1ccc(-c2nc(C(=O)N(C)C)c(C(=O)O)s2)cn1` [Example 149, 4-[(dimethylamino)carbonyl]-2-(6-{[(ethylamino)carbonyl]amino}pyridin-3-yl)-1,3-thiazole-5-carboxylic acid], the inhibition at 12.5 µM was 97.5%.

For `CCCCNC(=O)c1nc(-c2ccc(NC(=O)NCC)nc2)sc1C(N)=O` [Example 39, N^4-Butyl-2-(6-{[(ethylamino)carbonyl]amino}pyridin-3-yl)-1,3-thiazole-4,5-dicarboxamide], the inhibition at 12.5 µM came to 99%.

As to `CCNC(=O)Nc1nc(-c2cccc(C(=O)OC)c2)cs1` [Example 134, methyl 3-(2-{[(ethylamino)carbonyl]amino}-1,3-thiazol-4-yl)benzoate], the inhibition at 12.5 µM was 7.09%.

As to `CCNC(=O)Nc1cc(-c2nc(C(C)(C)C)cs2)c(-c2cncc(C(=O)OCC)c2)cn1` [Example 141, ethyl 4′-(4-tert-butyl-1,3-thiazol-2-yl)-6′-{[(ethylamino)carbonyl]amino}-3,3′-bipyridine-5-carboxylate], the inhibition at 12.5 µM was found to be 99.2%.

With `CCNC(=O)Nc1ccc(-c2nc(C(=O)NC3CC3)c(C(=O)OCC)s2)cn1` [Example 9, Ethyl 4-[(cyclopropylamino)carbonyl]-2-(6-{[(ethylamino)carbonyl]amino}pyridin-3-yl)-1,3-thiazole-5-carboxylate], the inhibition at 12.5 µM stood at 93.5%.

As to `CCNC(=O)Nc1ccc(-c2nc(C(=O)NC3CC3)c(C(N)=O)s2)cn1` [Example 38, N^4-Cyclopropyl-2-(6-{[(ethylamino)carbonyl]amino}pyridin-3-yl)-1,3-thiazole-4,5-dicarboxamide], the inhibition at 12.5 µM turned out to be 91.8%.

On to `CCNC(=O)Nc1nc(-c2ccc(C(=O)OC)cc2)cs1` [Example 41, Methyl 4-(2-{[(ethylamino)carbonyl]amino}-1,3-thiazol-4-yl)benzoate], for which the inhibition at 12.5 µM turned out to be 26.9%.

As for `CCNC(=O)Nc1ccc(-c2cncc(C(=O)O)c2)cn1` [Example 19, 6′-{[(Ethylamino)carbonyl]amino}-3,3′-bipyridine-5-carboxylic acid], the inhibition at 12.5 µM turned out to be 95.1%.

As for `CCNC(=O)Nc1cc(-c2cncc(F)c2)c(-c2cncc(C(=O)O)c2)cn1` [Example 69, 6′-{[(Ethylamino)carbonyl]amino}-5″-fluoro-3,3′:4′,3″-terpyridine-5-carboxylic acid], the inhibition at 12.5 µM stood at 88.5%.

For the compound `CCNC(=O)Nc1cc(-c2nc(CC)cs2)c(-c2cccc(C(=O)N(C)C)c2)cn1` [Example 160, 3-[6-{[(ethylamino)carbonyl]amino}-4-(4-ethyl-1,3-thiazol-2-yl)pyridin-3-yl]-N,N-dimethylbenzamide], the inhibition at 12.5 µM came to 95.5%.

Consider `CCNC(=O)Nc1ccc(-c2nc(C(=O)N(C)C)c(C(=O)NC(C)C)s2)cn1` [Example 56, 2-[6-(3-Ethyl-ureido)-pyridin-3-yl]-thiazole-4,5-dicarboxylic acid 4-dimethylamide 5-isopropylamide], for which the inhibition at 12.5 µM was 84.1%.

As for `CCCCNC(=O)c1nc(-c2ccc(NC(=O)NCC)nc2)sc1C(=O)NOC` [Example 36, N^4-Butyl-2-(6-{[(ethylamino)carbonyl]amino}pyridin-3-yl)-N^5-methoxy-1,3-thiazole-4,5-dicarboxamide], the inhibition at 12.5 µM was found to be 4.84%.

For `CCCCNC(=O)c1csc(-c2cnc(NC(=O)NCC)cc2-c2ccccc2)n1` [Example 163, N-butyl-2-(6-{[(ethylamino)carbonyl]amino}-4-phenylpyridin-3-yl)-1,3-thiazole-4-carboxamide], the inhibition at 12.5 µM worked out at 97.8%.

In the case of `CCNC(=O)Nc1ccc(-c2ccc(C(=O)OC)cn2)cn1` [Example 5, Methyl 6′-{[(ethylamino)carbonyl]amino}-2,3′-bipyridine-5-carboxylate], the inhibition at 12.5 µM was found to be 63.7%.

Take `CCNC(=O)Nc1ccc(-c2nc(C(=O)NC(C)(C)C)c(C(N)=O)s2)cn1` [Example 111, N^4-(tert-Butyl)-2-(6-{[(ethylamino)carbonyl]amino}pyridin-3-yl)-1,3-thiazole-4,5-dicarboxamide]: the inhibition at 12.5 µM came to 101%.

Turning to `CCNC(=O)Nc1ccc(-c2nc(C(=O)O)cs2)cn1` [Example 18, 2-(6-{[(Ethylamino)carbonyl]amino}pyridin-3-yl)-1,3-thiazole-4-carboxylic acid], the inhibition at 12.5 µM amounted to 101%.

In the case of `CCNC(=O)Nc1cc(-c2cccc(C(=O)O)c2)ccn1` [Example 143, 3-(2-{[(ethylamino)carbonyl]amino}pyridin-4-yl)benzoic acid], the inhibition at 12.5 µM was determined as 99.1%.

Take `CCNC(=O)Nc1ccc(-c2nc(C(=O)NCC)c(C(=O)N(C)C)s2)cn1` [Example 61, 2-[6-(3-Ethyl-ureido)-pyridin-3-yl]-thiazole-4,5-dicarboxylic acid 5-dimethylamide 4-ethylamide]: the inhibition at 12.5 µM turned out to be 92.8%.

For `CCNC(=O)Nc1cc(-c2cccnc2)c(-c2cncc(C(=O)O)c2)cn1` [Example 103, 6′-{[(Ethylamino)carbonyl]amino}-3,3′:4′,3″-terpyridine-5-carboxylic acid], the inhibition at 12.5 µM was 96%.

For `CCNC(=O)Nc1ccc(-c2nc(C(=O)N[C@@H](C)COC)c(C(N)=O)s2)cn1` [Example 117, 2-(6-{[(Ethylamino)carbonyl]amino}pyridin-3-yl)-N^4-[(1S)-2-methoxy-1-methylethyl]-1,3-thiazole-4,5-dicarboxamide], the inhibition at 12.5 µM was 101%.

For `CCNC(=O)Nc1cc(-c2nc(C(F)(F)F)cs2)c(-c2cncc(C(=O)NC3CC3)c2)cn1` [Example 126, N-Cyclopropyl-6′-{[(ethylamino)carbonyl]amino}-4′-[4-(trifluoromethyl)-1,3-thiazol-2-yl]-3,3′-bipyridine-5-carboxamide], the inhibition at 12.5 µM was found to be 96.2%.

Turning to `CCNC(=O)Nc1ccc(-c2ncc(C(=O)O)s2)cn1` [Example 17, 2-(6-{[(ethylamino)carbonyl]amino}pyridin-3-yl)-1,3-thiazole-5-carboxylic acid], the inhibition at 12.5 µM was 99.1%.

Take `CCNC(=O)Nc1ccc(-c2nc(-c3nccn3C)c(C(=O)OC)s2)cn1` [Example 75, Methyl 2-(6-{[(ethylamino)carbonyl]amino}pyridin-3-yl)-4-(1-methyl-1H-imidazol-2-yl)-1,3-thiazole-5-carboxylate]: the inhibition at 12.5 µM worked out at 93.5%.

Consider `CCNC(=O)Nc1ccc(-c2ncc(C(=O)OC)s2)cn1` [Example 1, Methyl 2-(6-{[(ethylamino)carbonyl]amino}pyridin-3-yl)-1,3-thiazole-5-carboxylate], for which the inhibition at 12.5 µM is 3.02%.

As for `CCCNC(=O)c1sc(-c2ccc(NC(=O)NCC)nc2)nc1C(=O)N(C)C` [Example 55, 2-[6-(3-Ethyl-ureido)-pyridin-3-yl]-thiazole-4,5-dicarboxylic acid 4-dimethylamide 5-propylamide], the inhibition at 12.5 µM was found to be 86.4%.
